Converted amounts (≈) assume the structure as drawn. Like-named read-outs stand apart in the source and are kept apart here.
Assays:
[1] = system: lung epithelial monolayers; conditions: cited from earlier work
[2] = UV-metric pKa measurement (SiriusT3); type: physicochemical; conditions: experimental, SiriusT3, 25 °C, mean ± S.D.
Protocol: Experimental pKa (−log10 of the acid dissociation equilibrium constant) values of SGC and SGD were evaluated using the UV-metric pKa measurement method of the SiriusT3 automated titrator instrument and the corresponding software SiriusT3Control and SiriusT3Refine (Pion Inc., Billerica, USA). The SiriusT3 apparatus uses a deuterium lamp to determine the UV/Vis absorbance spectrum of the test solutions at each pH point. The standard aqueous UV-metric pKa measurement protocol was conducted according to manufacturer instructions. […] This was mixed with 25 μL phosphate buffer (14.7 mM K2HPO4 and 0.15 M KCl in MilliQ water) and diluted with 1.5 mL ionic strength-adjusted water (ISA water ≡ 0.15 M KCl in MilliQ water). The subsequent acid/base titration and measurement of UV absorbance was automatically performed by the SiriusT3 at 25.0 ± 0.5 °C. […] Turbidity was monitored by a turbidity sensor to ensure the absence of precipitation of the test compounds during the experiment, since accurate pKa measurements are limited to fully dissolved substances. In case turbidity occurred, individual titrations were not used for further analysis, resulting in a total of 11 analysable titrations across the 5 replicate samples for both SGC and SGD.

[3] = potentiometric logP, water-octanol (SiriusT3); type: physicochemical; conditions: octanol/water, experimental, mean ± S.D., n = 3, read-out: logP
Protocol: LogP (partition coefficient) evaluation was performed via SiriusT3. The potentiometric logP measurement relies on assessing the partition profile of the test substance within a two-phase water-octanol solvent system. Changes in the relative volume ratio of octanol to water lead to shifts in the apparent pKa, resulting from the partitioning between non-ionised and ionised forms. LogP values were then estimated based on these assessments.

Calu-3 cells = test: Calu-3 cell uptake, FIA-TOFMS; type: in vitro ADME, human; conditions: 50 µg/mL; for Concentration [pg/µL] 1 in cell extract / Normalized concentration [pg/cell] 1: replicate 1; for Concentration [pg/µL] 2 in cell extract / Normalized concentration [pg/cell] 2: replicate 2; for Concentration [pg/µL] 3 in cell extract / Normalized concentration [pg/cell] 3: replicate 3
Protocol: At 4, 12, and 24 h after addition, cell extracts were generated in triplicates. To that end, the medium was aspirated from the respective wells, and cells were washed with pre-warmed ammonium carbonate solution (75 mM, pH 7.4, 37 °C). Immediately after removal of the wash solvent, 300 μL cold extraction solvent (40:40:20 acetonitrile:methanol:water, −20 °C) was added per well to lyse cells in situ and stop the enzymatic activity. The bottom of each well was subsequently scraped and the cell extracts were transferred to 96-well storage plates and stored at −80 °C until analysis. […] Quantification of SGC and SGD was performed using flow-injection time-of-flight mass spectrometry (FIA-TOFMS) in negative ion mode as described previously ([Fuhrer et al., 2011]). SGC and SGD signals were identified by matching accurate masses (for both [M-H]- at 707.2127 m/z). To account for possible influences of the complex matrix in the cell extract samples, a matrix-matched series of calibration samples were prepared, in which increasing concentrations of SGC were spiked into extracts of cells that had not previously been treated with either SGC or SGD. The calibration samples were injected alongside the cell extract samples and used to establish a calibration function using linear regression. The ion intensities measured were converted into SGC and SGD concentrations and normalized by the cell number in each sample, which was determined at each time point in separate cell cultures using trypan blue staining and cell counting in a Thermo Fisher Countess II Automated cell counter after trypsin-mediated cell detachment. This procedure eventually yielded estimates of SGC and SGD contents in pg/cell.

Calu-3 monolayer [4] = system: Calu-3 monolayer
Calu-3 monolayer [5] = system: Calu-3 monolayer; remark: listed apart in the source
SARS-CoV-2 = system: SARS-CoV-2; design: method as in Wasilewicz et al., 2023; conditions: reported to be based on inhibition of the viral main protease, ref Wasilewicz et al., 2023; read-out: anti-SARS-CoV-2 activity IC50; cited from earlier work
[6] = Calu-3 cell viability, MTT assay; conditions: human
[7] = pH-dependent thermodynamic solubility, miniaturized shake-flask method, UPLC-PDA; conditions: for solubility thermodynamic at 24 h: 24 °C, thermodynamic from solid
Calu-3 monolayer [8] = system: Calu-3 monolayer; remark: listed apart in the source

NC[C@H]1O[C@H](O[C@H]2[C@H](O)[C@@H](O[C@H]3O[C@H](CO)[C@@H](O)[C@H](N)[C@H]3O)[C@H](N)C[C@@H]2N)[C@H](N)C[C@@H]1O [tobramycin]
Papp [1]: < 5e-08 cm/s

C[C@H]1[C@H](NC(=O)/C(=N\OC(C)(C)C(=O)O)c2csc(N)n2)C(=O)N1S(=O)(=O)O [aztreonam]
Papp [1]: 0.07 ± 0.02 × 10^−6 cm/s

colistin
Papp [1]: 0.04 ± 0.02 × 10^−6 cm/s

CC(C)=CC[C@]12Oc3cc(O)c([C@H]4C=C(C)C[C@H](c5ccc(O)cc5O)[C@H]4C(=O)c4ccc(O)cc4O)c(O)c3C(=O)[C@@]1(O)Oc1cc(O)ccc12 [SGC, sanggenon C]
pKa ([2]; read-out: pKa 1): 2.64 ± 0.69
pKa ([2]; read-out: pKa 2): 5.2 ± 0.8
pKa ([2]; read-out: pKa 3): 6.74 ± 0.14
pKa ([2]; read-out: pKa 4): 7.97 ± 0.06
pKa ([2]; read-out: pKa 5): 9 ± 0.04
pKa ([2]; read-out: pKa 6): 9.84 ± 0.05
pKa ([2]; read-out: pKa 7): 10.7 ± 0.02
pKa ([2]; read-out: pKa 8): 12.05 ± 0.07
logP [3]: 3 to 3.5
intracellular content, Mean [pg/cell] (Calu-3 cells; 4 h): 2.0 ± 0.1 pg/cell
Concentration [pg/µL] 1 in cell extract (Calu-3 cells; 4 h): 4284 pg/µL
Normalized concentration [pg/cell] 1 (Calu-3 cells; 4 h): 2.09 pg/cell
Concentration [pg/µL] 2 in cell extract (Calu-3 cells; 4 h): 3851 pg/µL
Normalized concentration [pg/cell] 2 (Calu-3 cells; 4 h): 1.88 pg/cell
Concentration [pg/µL] 3 in cell extract (Calu-3 cells; 4 h): 3902 pg/µL
Normalized concentration [pg/cell] 3 (Calu-3 cells; 4 h): 1.90 pg/cell
intracellular content, Mean [pg/cell] (Calu-3 cells; 4 h, listed as Sanggenon C): 1.96 pg/cell
intracellular content, Mean [pg/cell] (Calu-3 cells; 12 h): 5.54 pg/cell
Concentration [pg/µL] 1 in cell extract (Calu-3 cells; 12 h): 13620 pg/µL
Normalized concentration [pg/cell] 1 (Calu-3 cells; 12 h): 5.77 pg/cell
Concentration [pg/µL] 2 in cell extract (Calu-3 cells; 12 h): 13397 pg/µL
Normalized concentration [pg/cell] 2 (Calu-3 cells; 12 h): 5.67 pg/cell
Concentration [pg/µL] 3 in cell extract (Calu-3 cells; 12 h): 12248 pg/µL
Normalized concentration [pg/cell] 3 (Calu-3 cells; 12 h): 5.19 pg/cell
intracellular content, Mean [pg/cell] (Calu-3 cells; 24 h): 8.1 ± 0.3 pg/cell
Concentration [pg/µL] 1 in cell extract (Calu-3 cells; 24 h): 17926 pg/µL
Normalized concentration [pg/cell] 1 (Calu-3 cells; 24 h): 8.34 pg/cell
Concentration [pg/µL] 2 in cell extract (Calu-3 cells; 24 h): 16862 pg/µL
Normalized concentration [pg/cell] 2 (Calu-3 cells; 24 h): 7.85 pg/cell
Concentration [pg/µL] 3 in cell extract (Calu-3 cells; 24 h): 17411 pg/µL
Normalized concentration [pg/cell] 3 (Calu-3 cells; 24 h): 8.11 pg/cell
intracellular content, Mean [pg/cell] (Calu-3 cells; 24 h, listed as Sanggenon C): 8.10 pg/cell
evidence for permeability of SGC or SGD (Calu-3 monolayer [4]): Neither by applying the isolated compounds nor the extracts MA60 and MA21, any evidence for the permeability of SGC or SGD was detectable
permeability across intact Calu-3 monolayers (Calu-3 monolayer [4]): no measurable permeability
change in TEER during permeability study, B-A direction (Calu-3 monolayer [5]): a decrease in TEER values was also observed
IC50 (SARS-CoV-2): 7.2 µM
CC50 at 24 h [6]: 47.8 µg/mL (≈ 67.4 µM)
solubility thermodynamic at 24 h ([7]; HCl buffer, pH 1.2, simulated gastric fluid): 4.47 µg/mL (≈ 6.31 µM)
solubility thermodynamic at 24 h ([7]; acetate buffer, pH 4.5, aqueous buffer): 8.53 µg/mL (≈ 12 µM)
pH 1.2 solubility ([7]; compound within extract MA21, pH 1.2): < LOQ
pH 4.5 solubility ([7]; compound within extract MA21, pH 4.5): < LOQ
pH 6.8 solubility ([7]; compound within extract MA21, pH 6.8): 4.05 µg/mL
pH 7.4 solubility ([7]; compound within extract MA21, pH 7.4): 3.24 µg/mL
pH 1.2 solubility ([7]; compound within extract MA60, pH 1.2): 6.88 µg/mL
pH 4.5 solubility ([7]; compound within extract MA60, pH 4.5): < LOQ
pH 6.8 solubility ([7]; compound within extract MA60, pH 6.8): 12.7 µg/mL
pH 7.4 solubility ([7]; compound within extract MA60, pH 7.4): 13.6 µg/mL
solubility thermodynamic at 24 h ([7]; phosphate buffer, pH 6.8, aqueous buffer): 18.5 µg/mL (≈ 26.1 µM)
solubility thermodynamic at 24 h ([7]; phosphate buffer, pH 7.4, aqueous buffer): 47.1 µg/mL (≈ 66.5 µM)

O=C1OC2(c3ccc(O)cc3Oc3cc(O)ccc32)c2ccccc21 [fluorescein]
fluorescein permeation across Calu-3 monolayer (Calu-3 monolayer [8]): no fluorescein permeation was detected
